Values quoted from earlier work, collected in patent publication US20230321462A1, “Method for Improving Olfactory Sensitivity” (Kao Corporation, priority 2019, published 2023).

Legend:
Details in all cases: Table 3; cited from earlier work
[1] = biological target: T1, OR51D1 (Homo sapiens, UniProt Q8NGF3)
T1 sequence (Q8NGF3 1-324): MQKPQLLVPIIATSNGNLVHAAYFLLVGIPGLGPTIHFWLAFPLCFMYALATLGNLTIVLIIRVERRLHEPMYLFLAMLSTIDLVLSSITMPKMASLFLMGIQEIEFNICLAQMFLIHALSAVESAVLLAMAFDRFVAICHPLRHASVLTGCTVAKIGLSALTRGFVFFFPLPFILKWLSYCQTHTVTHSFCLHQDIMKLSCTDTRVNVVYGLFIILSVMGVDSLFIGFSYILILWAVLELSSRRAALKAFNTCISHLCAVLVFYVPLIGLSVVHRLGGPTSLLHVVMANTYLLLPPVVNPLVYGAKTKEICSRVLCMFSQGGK

[2] = biological target: T2, OR7G2 (Homo sapiens, UniProt Q8NG99)
T2 sequence (Q8NG99 1-324): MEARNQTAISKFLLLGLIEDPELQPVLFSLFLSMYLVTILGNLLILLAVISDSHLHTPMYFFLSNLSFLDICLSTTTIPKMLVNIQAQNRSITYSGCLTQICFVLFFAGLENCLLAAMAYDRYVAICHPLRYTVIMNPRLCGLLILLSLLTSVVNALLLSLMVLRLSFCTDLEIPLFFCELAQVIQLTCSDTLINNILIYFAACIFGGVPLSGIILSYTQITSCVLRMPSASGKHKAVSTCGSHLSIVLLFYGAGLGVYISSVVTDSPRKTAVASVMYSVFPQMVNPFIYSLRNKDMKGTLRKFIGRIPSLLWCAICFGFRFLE

[3] = biological target: T3, OR2T1 (Homo sapiens, UniProt O43869)
T3 sequence (O43869 1-369): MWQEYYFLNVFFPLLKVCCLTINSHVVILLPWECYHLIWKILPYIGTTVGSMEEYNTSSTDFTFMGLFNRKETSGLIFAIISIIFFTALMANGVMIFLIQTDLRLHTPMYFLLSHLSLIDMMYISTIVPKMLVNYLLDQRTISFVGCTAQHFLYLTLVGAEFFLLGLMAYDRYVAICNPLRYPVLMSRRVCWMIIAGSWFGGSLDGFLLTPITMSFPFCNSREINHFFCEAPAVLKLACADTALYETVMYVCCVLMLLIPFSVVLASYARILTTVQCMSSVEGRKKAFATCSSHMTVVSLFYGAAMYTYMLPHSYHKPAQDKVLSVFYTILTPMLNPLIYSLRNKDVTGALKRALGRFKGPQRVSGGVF

[4] = biological target: T4, OR5Al1 (Homo sapiens, UniProt P0C617)
T4 sequence (P0C617 1-329): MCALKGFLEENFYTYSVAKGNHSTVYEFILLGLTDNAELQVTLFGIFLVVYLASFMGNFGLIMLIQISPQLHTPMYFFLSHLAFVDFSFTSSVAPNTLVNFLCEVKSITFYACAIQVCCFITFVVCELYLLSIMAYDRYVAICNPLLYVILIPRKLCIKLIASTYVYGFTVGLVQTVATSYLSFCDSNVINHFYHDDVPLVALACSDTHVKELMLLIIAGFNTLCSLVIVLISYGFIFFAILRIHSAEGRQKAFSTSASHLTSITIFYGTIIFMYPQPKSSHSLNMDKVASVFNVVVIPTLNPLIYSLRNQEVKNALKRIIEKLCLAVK

CCCC(=O)O [Butyric acid]
recognized by: recognition by OR51D1 [1] | recognition by OR7G2 [2] | recognition by OR2T1 [3] | recognition by OR5Al1 [4]
